Measured values from patent publication US7201928B1, “Extracts of orange peel for prevention and treatment of cancer” (Rutgers, The State University of New Jersey, priority 1999, dated 2007).
pIC50: −log10 of the molar value. Read-outs that look alike come from different tables or passages of the source.

What was measured:
[1] = system: W138 (normal) cells; test: cell proliferation assay and morphology, normal cells; format: cell-based, human; details: for effect on normal cell growth: crystal violet, 0, 1, 5, 10, 20 or 50 μg/ml; for neutral β-galactosidase activity (staining), senescence marker: W138 cells
Procedure: (§1) In addition to testing for the activity of the complete orange peel extract, two of the identified extract components, tangeretin and nobeletin, were tested for their combined activity in a cell proliferation assay. The growth of W138 (normal) and W138VA (transformed) cells was tested in the presence of a mixture of tangeretin and nobeletin. The dye crystal violet was used for measuring growth of the cells. Cells were treated with either tangeretin alone (0, 1, 5, 10, 20 or 50 μg/ml), nobeletin alone (0, 1, 5, 10, 20 or 50 μg/ml) or a mixture of the two compounds at a total concentration of the two flavenoids of 0, 1, 5, 10, 20 or 50 μg/ml. […] The range of doses of the extract tested was 0, 1, 5, 10, 20 and 50 μg/ml.
(§2) W138 human diploid fibroblasts and cancerous SV40-transformed W138 cells (W138VA) were used in a cell proliferation assay. Growth rate and viability of these cells was determined following addition of resveratrol or one of its analogs. Doses tested ranged from 50 ng to 300 μg per ml or 1 μM to 100 μM concentrations in culture media. […] MR-1 was not active as an inhibitor of cell growth even at doses as high as 100 μM.
Treatment of W138 and W138VA cells with resveratrol and its analogs also led to morphological changes in the cells. Treatment of W138 cells with resveratrol and its analogs R-1 and R-3 led to elongation of normal W138 cells. Methoxy analogs such as MR-0 and MR-3 caused the flattening of W138 cells. This flattening was accompanied by an increase in neutral β-galactosidase activity as indicated by an increase in staining.

[2] = system: W138 and W138VA cells; test: cell proliferation assay, cell line not specified for the result; format: cell-based, human
Procedure: as §1, §2

[3] = system: W138VA (transformed) cells; test: cell proliferation assay, transformed cells; format: cell-based, human; details: for inhibition of cell growth in transformed cells: crystal violet, 0, 1, 5, 10, 20 or 50 μg/ml
Procedure: as §1, §2

[4] = system: oncogene-expressing, preneoplastic breast epithelial cells; test: orthotransplant model, palpable tumor formation at transplant sites; details: AIN-76A diet supplemented with 400 ppm
Source text: Mice were transplanted with oncogene-expressing, preneoplastic breast epithelial cells. Mice were then divided into groups with the control group fed AIN-76A diet alone. Another group of mice was fed AIN-76A diet supplemented with MR-3 (400 ppm).

[5] = system: 184-B5/HER cells; test: preclinical cell culture model for human ductal breast carcinoma in situ; format: cell-based; details: for cell cycle analysis: relative to solvent-treated control cultures
Procedure: Experiments were also performed in a preclinical cell culture model for human ductal breast carcinoma in situ (DCIS). The human breast-derived preneoplastic cell line 184-B5/HER expressed HER-2/neu, p53 and EGFR but not ER, therefore resembling the clinical DCIS. Initial dose-response experiments compared the growth inhibitory effect of orange peel extract on the parental 184-B5 cells and the HER-2/neu oncogene-expressing 184-B5/HER cells. […] Orange peel extract at the maximum cytostatic dose of 100 ppm accumulated the cells in the G0/G1 phase and inhibited the S+G2/M phase of the cell cycle, leading to down-regulation of cell cycle progression. […] Treatment of 184-B5/HER cells with 100 ppm orange peel extract induced a 7.6-fold increase in sub G0/G1 (apoptotic) population. Consistent with the induction of apoptosis, immunoreactivity to anti-apoptotic Bcl-2 was decreased by 33%.
Resveratrol and its analogs were also tested in preneoplastic 184-B5/HER human mammary epithelial cells.

[6] = system: AOM-induced aberrant crypt foci (ACF); test: AOM-induced formation of aberrant crypt foci (colon cancer model); format: in vivo, Female CF-1 mice; details: 0.2% in diet
Procedure: The orange peel extract was then tested in an in vivo model for colon cancer. Female CF-1 mice were injected with azoxymethane (AOM) once a week for four weeks at increasing doses (5, 10, 10 and 10 mg/kg). Orange peel extract was administered in the diet (0.2%) starting two weeks before the first AOM injection, during and continuing until the end of the experiment at 24 weeks. At week 24, the mice were given one last dose of AOM (10 mg/kg). The mice were then sacrificed and their colons removed (from anus to caecum). The colons were opened longitudinally, rinsed with normal saline, and stapled to a plastic sheet. The colon samples were placed in a 10% neutral buffered formalin solution for 24 hours. The entire colon was stained with 0.2% methylene blue dissolved in phosphate buffered saline for 20 minutes. The whole mount of colon samples were then examined using light microscopy for the presence of aberrant crypt (AC) or aberrant crypt foci (ACF). Both ACF and AC are biomarkers for colon cancer. […] Mice fed nordihydroxyguaiaretic acid (NDGA) in the diet (0.2%) were used as controls.

[7] = system: AOM-induced colon tumors; test: AOM-induced colon tumorigenesis; details: 0.2% in AIN 76A diet + AOM
Procedure: In a similar experiment in the mouse colon cancer model, CF-1 mice were injected with AOM (5, 10, 10 and 10 mg/kg) starting at 6 weeks of age, once each week and then once at 37 weeks after the first dose of AOM. Throughout the treatment period, mice received either an AIN 76A diet or test compound in AIN 76A diet at 2 weeks before the first dose of AOM and continuing until the end of the experiment. The test compounds were NDGA (0.2%) and orange peel extract (0.2%). Colon samples were again obtained at sacrifice, stored in 10% formalin phosphate buffer, and then colon tumor number was determined.

[8] = read-out: concentration that inhibited growth by 50% (IC50), 184-B5/HER human mammary epithelial cells

## Oc1ccc(C=Cc2cc(O)c(O)c(O)c2)cc1 [R-3, 3,4,4′,5-tetrahydroxystilbene]
[1]
  morphological changes of W138 cells: elongation
[2]; tested 1 μM to 100 μM
  inhibition of cell growth: inhibited cell growth

## COc1ccc(-c2cc(=O)c3c(OC)c(OC)c(OC)c(OC)c3o2)cc1OC [nobeletin, 5,6,7,8,3′,4′-hexamethoxyflavone]
[1]
  effect on normal cell growth: no effect
[3]
  inhibition of cell growth in transformed cells: only marginal effects

## Oc1ccc(C=Cc2cc(O)cc(O)c2)cc1 [resveratrol, reference compound]
[1]
  morphological changes of W138 cells: elongation
[2]; tested 1 μM to 100 μM
  concentration inhibiting cell growth: less than 10 μM

## COc1ccc(C=Cc2cc(OC)c(OC)c(OC)c2)cc1 [MR-3, 3,4,4′,5-tetramethoxystilbene]
[4]; 12 weeks
  toxicity (weight gains comparable): little toxicity
[4]; 12 weeks of continuous feeding
  tumor incidence: 20%
[1]
  morphological changes of W138 cells: flattening
  neutral β-galactosidase activity (staining), senescence marker: increase
[1]; 1 μM
  growth of W138 cells: no effect
[3]; 1 μM
  proliferation of W138VA cells: completely blocked proliferation
[5]; Homo sapiens, 184B5, read-out: concentration that inhibited growth by 50% (IC50)
  pIC50: 6.00
[5]
  cell cycle analysis: progressive arrest of cells in the G2/M phase

## COc1cc(C=Cc2ccc(OC)c(OC)c2)cc(OC)c1 [MR-2, 3,3′,4,5′-tetramethoxystilbene]
[5]; [8]
  pIC50: 3.92
[5]
  cell cycle analysis: progressive arrest of cells in the G2/M phase

## Oc1cc(O)cc(C=Cc2ccccc2)c1 [R-1, 3,5-dihydroxystilbene]
[1]
  morphological changes of W138 cells: elongation

## COc1ccc(C=Cc2cc(OC)cc(OC)c2)cc1 [MR-0, 3, 4′,5-trimethoxystilbene]
[1]
  morphological changes of W138 cells: flattening
  neutral β-galactosidase activity (staining), senescence marker: increase
[5]; [8]
  pIC50: 4.98
[5]
  cell cycle analysis: progressive arrest of cells in the G2/M phase
[2]; tested 1 μM to 100 μM
  inhibition of cell growth: inhibited cell growth

## COc1ccc(-c2cc(=O)c3c(OC)c(OC)c(OC)c(OC)c3o2)cc1 [tangeretin, 5,6,7,8,4′-pentamethoxyflavone]
[1]
  effect on normal cell growth: no effect
[3]
  inhibition of cell growth in transformed cells: only marginal effects

## COc1cc(C=Cc2cc(OC)cc(OC)c2)cc(OC)c1 [MR-4, 3,3′,5′5′-tetramethoxystilbene]
[1]; 100 μM
  growth of W138 cells: inhibited growth

## CC(Cc1ccc(O)c(O)c1)C(C)Cc1ccc(O)c(O)c1 (stereo not shown) [NDGA, nordihydroxyguaiaretic acid]
[6]; 24 weeks
  AC/ACF: 3.5
  AC/colon: 9.4 ± 2.2
  ACF/colon: 2.7 ± 0.9
  ACF: 1 AC/colon: 6.8 ± 1.5
  ACF: 2 AC/colon: 1.0 ± 0.3
  ACF: 3 AC/colon: 0.2 ± 0.2
  ACF: 4 AC/colon: 0
  ACF: 5 AC/colon: 0
  ACF: 6 AC/colon: 0
  ACF: 7 AC/colon: 0
[6]; vs positive control
  inhibition of the number of ACF per colon: 48%
  inhibition of the ratio of AC/ACF: 51%
[7]
  Colon Tumors Per Mouse: 0.27 ± 0.14
  Percent Incidence: 27%

## COc1cc(C=Cc2ccccc2)cc(OC)c1 [MR-1, 3,5-dimethoxystilbene]
[2]; doses as high as 100 μM
  activity as inhibitor of cell growth: not active
